In patent US12139481B2, “Compositions comprising macrocycle derivatives incorporating bridged macrocycles and methods of producing and using same” (Southwestern Oklahoma State University, priority 2015, dated 2024):
Where “and” joins values, the source holds several entries; their conditions need not be identical. Equal entries are not always repeated.

How the values were obtained:
[1] = test system: S. mansoni newly transformed schistosomula (NTS); assay: In vitro testing on Schistosoma mansoni newly transformed schistosomula (NTS), viability score; format: cell-based; settings: NTS S. mansoni, 33 μM, 72 h
Protocol: Assays were prepared according to the laboratory SOP for the lab of Dr. Jennifer Keiser (Swiss Tropical and Public Health Institute, Basel). Harvested S. mansoni cercariae (Liberian strain) obtained from infected Biomphalaria glabrata snails were mechanically transformed into newly transformed schistosomula (NTS) following standard procedures. Briefly, snails were placed under light in the morning to stimulate cercarial shedding. The cercarial suspension was collected, cooled for 30 minutes, and then vigorously pipetted (30×) and vortexed (3 minutes). The suspension was then placed in the incubator (37° C. and 5% CO2) for 30 minutes, and the vortexing and pipetting steps were repeated. The transformation was complete at this point, and the tails were separated from the heads by rinsing three times with cold HBSS. NTS were then incubated overnight in culture medium overnight and used the next day.
The original stock compounds (which were not already dissolved) were dissolved in dimethyl sulfoxide (DMSO) to a concentration of 10 mM. 100 NTS were placed in each well of a 96-well plate with culture medium, and the test compound for a final well volume of 250 μl. […] NTS incubated with no more than 1% DMSO served as control. NTS were kept in an incubator at 37° C. and 5% CO2 for up to 72 hours. After 72 hours, the condition of the NTS was microscopically evaluated using a scale from 3 (normal activity and no tegument alteration) to 0 (dead, completely granulated).

[2] = test system: Staphylococcus aureus ATCC 29213; assay: Antibacterial broth dilution assay against S. aureus (modified CLSI); format: cell-based; settings: for S. aureus IC50 / IC50: in vitro; for IC50: converted with molecular weight; for X more potent than ciprofloxacen: molar IC50 ratio versus ciprofloxacen
Outline: (§1)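 Growth read by optical density at 530 nm, duplicate wells, 1% final DMSO. Staphylococcus spp.: Mueller-Hinton pH 7.3, 5.0×10^5 CFU/ml, 35 °C for 16-20 h; Candida spp.: RPMI/dextrose/glutamine/MOPS pH 6.0, 1.5×10^3 CFU/ml, 35 °C for 46-50 h. Reported values are 50% inhibition versus controls, no-growth MIC, and killing MFC/MBC.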

[3] = test system: Cryptococcus neoformans ATCC 90113; assay: Antimicrobial microdilution assay against Cryptococcus neoformans (modified CLSI/NCCLS, optical density); format: cell-based; settings: for X more potent than Amphotericin B: C. neoformans, ratio of molar IC50 to Amphotericin B; for C. neoformans IC50 / IC50: in vitro, C. neoformans ATCC 90113; for IC50: read-out: C. neoformans IC50 (mol/L)
Outline: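 Fungicidal endpoint taken by subculturing 5 μL from each clear well onto agar, MFC being the lowest concentration with no regrowth. Duplicate wells of serially diluted compound (20% DMSO/saline) in RPMI pH 6.0, read at 630 nm pre- and post-incubation, under modified CLSI methods. IC50 means 50% growth inhibition against controls.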

C. krusei ATCC 6258 = assay: Antifungal broth dilution assay against C. krusei (modified CLSI); format: cell-based, Candida krusei
Outline: as §1

[4] = test system: methicillin-resistant S. aureus ATCC 33591 (MRS); assay: Antibacterial broth dilution assay against MRSA (modified CLSI); format: cell-based, Staphylococcus aureus; settings: for MRSa IC50 / IC50: in vitro; for IC50: converted with molecular weight; for X more potent than ciprofloxacen: molar IC50 ratio versus ciprofloxacen
Protocol: General Experimental Procedures. All organisms were obtained from the American Type Culture Collection (Manassas, VA) and include the fungi Candida albicans ATCC 90028, C. glabrata ATCC 90030, C. krusei ATCC 6258, and Cryptococcus neoformans ATCC 90113, and the bacteria Staphylococcus aureus ATCC 29213 and methicillin-resistant S. aureus ATCC 33591 (MRS). All organisms were tested using modified versions of the CLSI (formerly NCCLS) methods. For all organisms, optical density was used to monitor growth (NCCLS, Reference Method for Broth Dilution Antifungal Susceptibility Testing of Yeasts; Approved Standard M27-A2. National Committee on Clinical Laboratory Standards, 2002 22 (15); and NCCLS, Methods for Dilution Antimicrobial Susceptibility Tests for Bacteria that Grow Aerobically; Approved Standard, Seventh Edition M7-A7. National Committee on Clinical Laboratory Standards, 2006. 26(2)).
Samples (dissolved in DMSO) were serially-diluted in 20% DMSO/saline and transferred (10 μL) in duplicate to 96 well flat bottom microplates. Inocula were prepared by correcting the OD630 of microbe suspensions in incubation broth [RPMI 1640/0.2% dextrose/0.03% glutamine/MOPS @ pH 6.0 (Cellgro) for Candida spp., Sabouraud Dextrose for C. neoformans, and cation-adjusted Mueller-Hinton (Difco) @ pH 7.3 for Staphylococcus spp. to afford an assay volume of […] and final target inocula of: Candida spp. and C. neoformans: 1.5×10^3, and Staphylococcus spp.: 5.0×10^5 CFU/ml. Final sample test concentrations were 1/100th the DMSO stock concentration. […] All organisms were read at either 530 nm using the Biotek Powerwave XS plate reader (Bio-Tek Instruments, Vermont) prior to and after incubation: Candida spp. at 35° C. for 46-50 h, Staphylococcus spp. at 35° C. for 16-20 h, and C. neoformans at 35° C. for 70-74 h. IC50s (concentrations that afford 50% inhibition relative to controls) were calculated using XLfit 4.2 software (IDBS, Alameda, CA) using fit model 201. The MIC is defined as the lowest test concentration that allows no detectable growth. Minimum fungicidal or bactericidal concentrations were determined by removing 5 μl from each clear (or blue) well, transferring to fresh media, and incubating as previously mentioned. The MFC/MBC is defined as the lowest test concentration that kills the organism (allows no growth).
Primary Analysis. Samples were tested in duplicate at one test concentration (50 μg/mL), and percent inhibitions were calculated relative to blank and growth controls. Samples showing 50% inhibition in at least one test organism were selected for dose response (Secondary) studies.
Secondary Analysis. Extracts from the Primary Assay, and first-run pure compounds and column fractions were tested in duplicate at 3 test concentrations (5-fold dilutions). Samples dissolved to 20 mg/mL in DMSO were tested at 200, 40, and 8 μg/mL. Samples dissolved to 2 mg/mL in DMSO were tested at 20, 4, and 0.8 μg/mL.

[5] = test system: L. donovani promastigotes; assay: Antileishmanial Alamar Blue assay on promastigotes; format: cell-based, Leishmania donovani; settings: for X more potent than Pentamidine: L. donovani, ratio of molar IC50 to Pentamidine; for L. donovani IC50 / IC50: promastigotes, 48 hours, Alamar Blue; for IC50: read-out: L. donavani IC50
Outline: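 Alamar Blue fluorescence (544/590 nm) quantified growth after 48 hours at 26° C of compound-treated promastigotes. Parasites were seeded at 5×10^5/mL in RPMI 1640 plus 10% FCS; drug range 50-3.1 μg/mL, and IC50 derived by plotting percent growth against test concentration.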

C. glabrata ATCC 90030 = assay: Antifungal broth dilution assay against C. glabrata (modified CLSI); format: cell-based, Candida glabrata; settings: for C. glabrata IC50 / IC50: in vitro; for IC50: converted with molecular weight; for X more potent than Amphotericin B: molar IC50 ratio versus amphotericin B
Outline: as §1

Compound	Effect at 72 h (%) [1]	X more potent than Amphotericin B [3]	C. neoformans IC50 [3]	IC50 [3]	other results
CC(=O)[O-].CN1CCCN2CCN(CCCN(Cc3ccccc3)CC2)CC1.F[P-](F)(F)(F)(F)F.[Co+2] [TRH016]	11.71%				
m-SB-cyclens HCl salt [OB25B]		0.74	0.300 µg/mL	0.324 µM	S. aureus IC50 [2]: 5.940 µg/mL; IC50 [2]: 6.41 µM; X more potent than ciprofloxacen [2]: 0.04; X more potent than Amphotericin B (C. krusei ATCC 6258; C. krusei, ratio of molar IC50 to amphotericin B): 0.21; C. krusei IC50 (C. krusei ATCC 6258; in vitro): 6.530 µg/mL; IC50 (C. krusei ATCC 6258; in vitro, read-out: C. krusei IC50 (mol/L)): 7.05 µM; MRSa IC50 [4]: 5.450 µg/mL; IC50 [4]: 5.88 µM; X more potent than ciprofloxacen [4]: 0.04; X more potent than Pentamidine [5]: 0.43; L. donovani IC50 [5]: 11.45 µg/mL; IC50 [5]: 12.4 µM
[Zn2(p-CB-cyclam-cyclen)(OAc)][PF6]3•4H2O [CMB030]		0.22	1.380 µg/mL	1.1 µM	S. aureus IC50 [2]: 7.86 µg/mL; IC50 [2]: 6.28 µM; X more potent than ciprofloxacen [2]: 0.04; MRSa IC50 [4]: 8.760 µg/mL; IC50 [4]: 7 µM; X more potent than ciprofloxacen [4]: 0.03; C. glabrata IC50 (C. glabrata ATCC 90030): 4.190 µg/mL; IC50 (C. glabrata ATCC 90030): 3.35 µM; X more potent than Amphotericin B (C. glabrata ATCC 90030): 0.42; X more potent than Pentamidine [5]: 0.21; L. donovani IC50 [5]: 31.32 µg/mL; IC50 [5]: 25 µM
CC(=O)[O-].CC(=O)[O-].CN1CCCN2CCN(CCCN(Cc3cccc(CN4CCCN5CCN(C)CCCN(CC5)CC4)c3)CC2)CC1.F[P-](F)(F)(F)(F)F.F[P-](F)(F)(F)(F)F.F[P-](F)(F)(F)(F)F.F[P-](F)(F)(F)(F)F.[Co+3].[Co+3] [CDG010, [Co2(m-CB-Cyclams)(OAc)2][PF6]4]	11.71%	0.35	0.960 µg/mL	0.686 µM	
[Cu3(tris-SB-Cyclens)(OAc)3][PF6]3•0.5NH4PF6 [CDG022]	11.71%	0.07	5.480 µg/mL	3.44 µM	
[Co2(p-CB-cyclam-cyclen)(OAc)2][PF6]2 [CMB027]		0.32	≤ 0.800 µg/mL	0.74 µM	S. aureus IC50 [2]: 7.36 µg/mL; IC50 [2]: 6.81 µM; X more potent than ciprofloxacen [2]: 0.04; MRSa IC50 [4]: 5.390 µg/mL; IC50 [4]: 4.99 µM; X more potent than ciprofloxacen [4]: 0.04; C. glabrata IC50 (C. glabrata ATCC 90030): 1.320 µg/mL; IC50 (C. glabrata ATCC 90030): 1.22 µM; X more potent than Amphotericin B (C. glabrata ATCC 90030): 1.16; X more potent than Pentamidine [5]: 0.18; L. donovani IC50 [5]: 32.62 µg/mL; IC50 [5]: 30.2 µM
CC(=O)[O-].CC(=O)[O-].CN1CCN2CCN(CC1)CCN(Cc1cccc(CN3CCN4CCN(C)CCN(CC4)CC3)c1)CC2.F[P-](F)(F)(F)(F)F.F[P-](F)(F)(F)(F)F.[Cu+2].[Cu+2] [DJC06A, [Cu2(m-CB-Cyclens)(OAc)2][PF6]2]	5.41%	0.04	6.710 µg/mL	6.32 µM	
CC(=O)[O-].CC(=O)[O-].CC(=O)[O-].CN1CCCN2CCN(CCCN(Cc3cc(CN4CCCN5CCN(C)CCCN(CC5)CC4)cc(CN4CCCN5CCN(C)CCCN(CC5)CC4)c3)CC2)CC1.F[P-](F)(F)(F)(F)F.F[P-](F)(F)(F)(F)F.F[P-](F)(F)(F)(F)F.[Cu+2].[Cu+2].[Cu+2] [BNS025]	18.02%				
CN1CCN2CCN(C)CCN(CC1)CC2.F[P-](F)(F)(F)(F)F.[Cl-].[Cl-].[Mn+3] [CNV06, [Mn(Bcyclen)Cl2]PF6]	0.00%	0.02	6.390 µg/mL and 5.579 µg/mL	12.8 µM and 11.2 µM	
CC(=O)[O-].CC(=O)[O-].CC(=O)[O-].CN1CCN2CCN(CC1)CCN(Cc1cc(CN3CCN4CCN(C)CCN(CC4)CC3)cc(CN3CCN4CCN(C)CCN(CC4)CC3)c1)CC2.F[P-](F)(F)(F)(F)F.F[P-](F)(F)(F)(F)F.F[P-](F)(F)(F)(F)F.O.O.O.O.O.O.[Zn+2].[Zn+2].[Zn+2] [BNS22, [Zn3(tris-CB-Cyclens)(OAc)3][PF6]3•6H2O]	11.71%	0.12	3.410 µg/mL		
[Zn2(m-SB-Cyclams)(OAc)2][PF6]2 [KS26]	11.71%	0.02	12.510 µg/mL	12.1 µM	
c1c(CN2CCNCCN3CCN(CC3)CC2)cc(CN2CCNCCN3CCN(CC3)CC2)cc1CN1CCNCCN2CCN(CC2)CC1 [CDG029]	24.32%				
[Zn3(tris-SB-Cyclens)(OAc)3][PF6]3•0.5NH4PF6 [CDG023]	18.02%	0.29	1.310 µg/mL	0.819 µM	
F[P-](F)(F)(F)(F)F.F[P-](F)(F)(F)(F)F.F[P-](F)(F)(F)(F)F.F[P-](F)(F)(F)(F)F.F[P-](F)(F)(F)(F)F.F[P-](F)(F)(F)(F)F.[Ni+2].[Ni+2].[Ni+2].c1c(CN2CCCN3CCN(CCCNCC2)CC3)cc(CN2CCCN3CCN(CCCNCC2)CC3)cc1CN1CCCN2CCN(CCCNCC1)CC2 [CDG024, [Ni3(tris-SB-Cyclams)][PF6]6]	5.41%	0.18	2.440 µg/mL	1.33 µM	
CC(=O)[O-].CC(=O)[O-].CN1CCN2CCN(CC1)CCN(Cc1cccc(CN3CCN4CCN(C)CCN(CC4)CC3)c1)CC2.F[P-](F)(F)(F)(F)F.F[P-](F)(F)(F)(F)F.[Zn+2].[Zn+2] [DJC07, [Zn2(m-CB-Cyclens)(OAc)2][PF6]2]	0.00%	0.03	7.410 µg/mL		
c1c(CN2CCCN3CCN(CCCNCC2)CC3)cc(CN2CCCN3CCN(CCCNCC2)CC3)cc1CN1CCCN2CCN(CCCNCC1)CC2 [CDG019]	0.00%				
